The data set can be described thus: in vitro. Particulars: human, hela cells, % viability.

As for `Cc1ccc(-c2ncc(OCc3ccccc3)nc2N)c(C)c1` [CBK145129], the viability at 28.5 h, 10 µM is 90.6%. In the case of `Cc1ccc(-c2ncc(OCC3CCCN3C)nc2N)c(C)c1` (stereo not drawn) [CBK145137], the viability at 28.5 h, 10 µM was 99.2%.

Regarding `Cc1ccc(-c2ncc(OCCC(C)C)nc2N)cc1C` [CBK145145], the viability at 28.5 h, 10 µM turned out to be 90.5%.

As for `Cc1ccc(-c2ncc(OCc3cccs3)nc2N)cc1C` [CBK145146], the viability at 28.5 h, 10 µM turned out to be 101%. Consider `Cc1ccc(-c2ncc(OCCn3ccnc3)nc2N)cc1C` [CBK145148], for which the viability at 28.5 h, 10 µM came out at 102%. `Cc1ccc(-c2ncc(OCCN(C(C)C)C(C)C)nc2N)cc1C` [CBK145150]: the viability at 28.5 h, 10 µM is 85.9%. Take `Nc1nc(OCCn2cccc2)cnc1-c1ccsc1` [CBK145162]: the viability at 28.5 h, 10 µM came to 92.1%. Next, `Cn1cc(-c2ncc(OCCc3c[nH]c4ccccc34)nc2N)cn1` [CBK145166]: 88.3%; `Cn1cc(-c2ncc(OCc3ccc4c(c3)OCO4)nc2N)cn1` [CBK145168]: 105%; `Cn1cc(-c2ncc(OCCn3cccc3)nc2N)cn1` [CBK145170]: 107%. The same measure for `COc1cccc(Oc2cnc(-c3cccc(C(F)(F)F)c3)c(N)n2)c1` [CBK145177]: 94.2%. For `CN(C)C(=O)c1ccc(-c2ncc(OCCN3CCOCC3)nc2N)cc1` [CBK145183], the viability at 28.5 h, 10 µM worked out at 93.1%. For the molecule `CN(C)C(=O)c1ccc(-c2ncc(OCCN3CCCC3=O)nc2N)cc1` [CBK145184], the viability at 28.5 h, 10 µM was determined as 97.5%.

As to `Cn1c(=O)c2c(ncn2CCOc2cnc(-c3cnn(Cc4ccccc4)c3)c(N)n2)n(C)c1=O` [CBK145193], the viability at 28.5 h, 10 µM was 97.4%. Next, `Nc1nc(OCc2ccncc2)cnc1-c1cnn(Cc2ccccc2)c1` [CBK145194]: 96.7%; `CN1CCN(C(=O)c2cccc(-c3ncc(OCC(F)(F)F)nc3N)c2)CC1` [CBK145196]: 91.3%. Next, `Nc1nc(OCCN2CCCC2=O)cnc1-c1cc(Cl)cc(Cl)c1` [CBK145199]: 89.3%. Next, `CCC(CC)C(=O)Nc1nc(OC)cnc1-c1ccc(OCOC)cc1` [CBK145207]: 108%; `COc1ccc(CC(=O)Nc2nc(OC)cnc2/C=C\c2ccccc2)cc1` [CBK145224]: 98.7%.

With `COCc1cccc(-c2ncc(OC)nc2NC(=O)c2c(C)noc2C)c1` [CBK145237], the viability at 28.5 h, 10 µM came to 95.6%. Next, `COCc1cccc(-c2ncc(OCCN3CCCC3=O)nc2NC(C)=O)c1` [CBK145239]: 94.8%. The same measure for `COCOc1ccc(-c2ncc(OC)nc2NC(=O)c2cc(C)oc2C)cc1` [CBK145249]: 97.6%; for `COCOc1ccc(-c2ncc(OC)nc2NC(=O)c2cc3ccccc3s2)cc1` [CBK145250]: 103%; for `COc1cnc(-c2ccccc2OC)c(NC(C)=O)n1` [CBK145259]: 89.1%.

As to `COc1cnc(-c2ccccc2OC)c(NC(=O)c2ccccc2)n1` [CBK145261], the viability at 28.5 h, 10 µM came to 101%. Next, `COc1ccccc1-c1ncc(OCC(F)(F)F)nc1NC(=O)c1ccco1` [CBK145277]: 98.3%.

Consider `COc1cnc(-c2ccsc2)c(NC(=O)CC(C)C)n1` [CBK145292], for which the viability at 28.5 h, 10 µM stood at 94%. Next, `COc1ccc(C(=O)Nc2nc(OC)cnc2-c2ccsc2)cc1` [CBK145293]: 81.4%; `O=C(Cc1ccccc1)Nc1nc(OCC(F)(F)F)cnc1-c1ccsc1` [CBK145298]: 102%.

`COc1cnc(-c2cccc(C(F)(F)F)c2)c(NC(=O)Cc2ccccc2)n1` [CBK145308]: the viability at 28.5 h, 10 µM came to 104%. Consider `COc1cnc(-c2cnn(C)c2)c(NC(=O)Cc2ccccc2)n1` [CBK145327], for which the viability at 28.5 h, 10 µM is 101%. The same measure for `COc1cnc(-c2cnn(C)c2)c(NC(=O)C2CC2)n1` [CBK145328]: 104%; for `COc1cnc(-c2cnn(C)c2)c(NC(=O)c2ccco2)n1` [CBK145329]: 103%; for `COc1cnc(-c2cc(Cl)cc(Cl)c2)c(NC(C)=O)n1` [CBK145333]: 105%. For `CCC(CC)C(=O)Nc1nc(OC)cnc1-c1cc(Cl)cc(Cl)c1` [CBK145338], the viability at 28.5 h, 10 µM was 95.8%. Turning to `COc1cnc(-c2cc(Cl)cc(Cl)c2)c(NC(=O)c2ccsc2)n1` [CBK145340], the viability at 28.5 h, 10 µM amounted to 87.8%.

Turning to `COCC(=O)Nc1nc(OC)cnc1/C=C\c1ccccc1` [CBK145360], the viability at 28.5 h, 10 µM came to 113%.

Consider `COc1cnc(/C=C\c2ccccc2)c(NC(=O)c2ccco2)n1` [CBK145361], for which the viability at 28.5 h, 10 µM is 90.4%. As for `COc1ccc(C(=O)Nc2nc(OCC(F)(F)F)cnc2/C=C\c2ccccc2)c(OC)c1` [CBK145367], the viability at 28.5 h, 10 µM is 104%. Regarding `O=C(Nc1nc(OCCN2CCCC2=O)cnc1/C=C\c1ccccc1)c1cc2ccccc2s1` [CBK145380], the viability at 28.5 h, 10 µM was found to be 115%. In the case of `CCC(CC)C(=O)Nc1nc(OC)cnc1-c1cccc(C(=O)N(C)C)c1` [CBK145392], the viability at 28.5 h, 10 µM stood at 98.5%. As for `CC(=O)Nc1nc(OCC(F)(F)F)cnc1-c1cccc(C(=O)N(C)C)c1` [CBK145401], the viability at 28.5 h, 10 µM came out at 96%.

For `COc1cnc(-c2ccccc2)c(NC(C)=O)n1` [CBK145410], the viability at 28.5 h, 10 µM was found to be 93.4%.

For the molecule `CC(=O)Nc1nc(OCC(F)(F)F)cnc1-c1ccc2c(c1)OCO2` [CBK145427], the viability at 28.5 h, 10 µM is 91.8%.

For `CCCCN(C)c1c(CC)nc2ccc(C(=O)NCCN3CCCC3)cn12` [CBK145440], the viability at 28.5 h, 10 µM came out at 96.2%. Consider `CCCCN(C)c1c(CC)nc2ccc(C(=O)Nc3ccc(OC)c(OC)c3)cn12` [CBK145445], for which the viability at 28.5 h, 10 µM stood at 95.5%. Next, `CCCCN(C)c1c(CC)nc2ccc(C(=O)NC3=NC(=O)CS3)cn12` [CBK145464]: 102%. The same measure for `CCc1nc2ccc(C(=O)Nc3ccc(C(N)=O)cc3)cn2c1N(CCN(C)C)CC1CC1` [CBK145468]: 87.1%.

Regarding `CCc1nc2ccc(C(=O)Nc3ccc(C(N)=O)cc3)cn2c1N(C)CCC(C)C` [CBK145476], the viability at 28.5 h, 10 µM is 90.7%. For `CCCCNC(=O)c1ccc2nc(CC)c(N(C)CCC(C)C)n2c1` [CBK145477], the viability at 28.5 h, 10 µM turned out to be 100%. As for `CCc1nc2ccc(C(=O)N(C)Cc3ccco3)cn2c1N(C)C(=O)c1ccncc1` [CBK145479], the viability at 28.5 h, 10 µM turned out to be 90.9%. Next, `CCc1nc2ccc(C(=O)Nc3cccc(OC)c3)cn2c1N(C)Cc1cccs1` [CBK145522]: 96.7%; `CCc1nc2ccc(C(=O)NCCCN3CCCC3=O)cn2c1N(C)Cc1cccs1` [CBK145536]: 95%; `CCc1nc2ccc(C(=O)N(C)Cc3ccco3)cn2c1N(C)Cc1cccs1` [CBK145552]: 98.5%.

Regarding `CCc1nc2ccc(C(=O)NC3=NN(c4ccccc4)C(=O)C3)cn2c1N(C)Cc1cccs1` [CBK145557], the viability at 28.5 h, 10 µM amounted to 93%.

With `CCc1nc2ccc(C(=O)NCC3CCCCC3)cn2c1N(C)Cc1ccc(OC)cc1` [CBK145568], the viability at 28.5 h, 10 µM turned out to be 91.1%. The same measure for `CCc1nc2ccc(C(=O)N3CCN(C)CC3)cn2c1N(C)Cc1ccc(NC(C)=O)cc1` [CBK145603]: 87%.
